Test system: 817829-284-R-J1-PDC complex spheroids, viability
Experiment: Anticancer human tumor 817829-284-R-J1-PDC patient-derived colon adenocarcinoma cell line growth inhibition [GQUAD]
Details: for IC50: curve of first compound; for viability, T/C: stronger effect = lower value; active = viability on the fitted dose curve at most 10% of control; inactive = the rest
Summary of the method: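 Viability of tumor cells grown as complex spheroids with endothelial and stromal cells, exposed to drug combinations. Top concentration at or near clinical Cmax (else 10 microM), diluted in half-log increments.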

[1] = second compound 0.0316 µM, first compound 0.0316 µM
[2] = second compound 0.0316 µM, first compound 0.1 µM
[3] = second compound 0.0316 µM, first compound 0.316 µM
[4] = second compound 0.0316 µM, first compound 1 µM
[5] = second compound 0.0316 µM, first compound 3.16 µM
[6] = second compound 0.0316 µM, first compound 10 µM
[7] = second compound 0.1 µM, first compound 0.0316 µM
[8] = second compound 0.1 µM, first compound 0.1 µM
[9] = second compound 0.1 µM, first compound 0.316 µM
[10] = second compound 0.1 µM, first compound 1 µM
[11] = second compound 0.1 µM, first compound 3.16 µM
[12] = second compound 0.1 µM, first compound 10 µM
[13] = second compound 0.316 µM, first compound 0.0316 µM
[14] = second compound 0.316 µM, first compound 0.1 µM
[15] = second compound 0.316 µM, first compound 0.316 µM
[16] = second compound 0.316 µM, first compound 1 µM
[17] = second compound 0.316 µM, first compound 3.16 µM
[18] = second compound 0.316 µM, first compound 10 µM
[19] = second compound 1 µM, first compound 0.0316 µM
[20] = second compound 1 µM, first compound 0.1 µM
[21] = second compound 1 µM, first compound 0.316 µM
[22] = second compound 1 µM, first compound 1 µM
[23] = second compound 1 µM, first compound 3.16 µM
[24] = second compound 1 µM, first compound 10 µM
[25] = second compound 3.16 µM, first compound 0.0316 µM
[26] = second compound 3.16 µM, first compound 0.1 µM
[27] = second compound 3.16 µM, first compound 0.316 µM
[28] = second compound 3.16 µM, first compound 1 µM
[29] = second compound 3.16 µM, first compound 3.16 µM
[30] = second compound 3.16 µM, first compound 10 µM
[31] = second compound 10 µM, first compound 0.0316 µM
[32] = second compound 10 µM, first compound 0.1 µM
[33] = second compound 10 µM, first compound 0.316 µM
[34] = second compound 10 µM, first compound 1 µM
[35] = second compound 10 µM, first compound 3.16 µM
[36] = second compound 10 µM, first compound 10 µM
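Note: spheroids exposed to agents for 7 days before readout.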
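Throughout, for viability, T/C: percent viability relative to DMSO vehicle control taken as 100%.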

CC1COCCN1c1cc(C2(S(C)(=N)=O)CC2)nc(-c2ccnc3[nH]ccc23)n1 (centres undefined) + CN(C)c1ccc(Nc2c3ccc(NC(=O)CCN4CCCC4)cc3nc3cc(NC(=O)CCN4CCCC4)ccc23)cc1
391 nM: IC50 (second compound 10 µM)
inactive: viability, T/C [1] 94.2% | viability, T/C [2] 93.2% | viability, T/C [3] 75.4% | viability, T/C [4] 27.5% | viability, T/C [5] 11.2% | viability, T/C [7] 90.1% | viability, T/C [8] 95.4% | viability, T/C [9] 82.3% | viability, T/C [10] 26.4% | viability, T/C [13] 99% | viability, T/C [14] 96.5% | viability, T/C [15] 79.8% | viability, T/C [16] 24.7% | viability, T/C [19] 86% | viability, T/C [20] 98.5% | viability, T/C [21] 76% | viability, T/C [22] 24.1% | viability, T/C [25] 91.4% | viability, T/C [26] 94.9% | viability, T/C [27] 70.1% | viability, T/C [28] 29.9% | viability, T/C [29] 13% | viability, T/C [31] 99.6% | viability, T/C [32] 87.9% | viability, T/C [33] 57.1% | viability, T/C [34] 20.3%
584 nM: IC50 (second compound 0.0316 µM)
active: viability, T/C [6] 7.5% | viability, T/C [11] 11.1% | viability, T/C [12] 7.72% | viability, T/C [17] 9.67% | viability, T/C [18] 7.15% | viability, T/C [23] 10.8% | viability, T/C [24] 7.23% | viability, T/C [30] 7.64% | viability, T/C [35] 9.51% | viability, T/C [36] 5%
589 nM: IC50 (second compound 0.316 µM)
566 nM: IC50 (second compound 1 µM)
616 nM: IC50 (second compound 0.1 µM)
569 nM: IC50 (second compound 3.16 µM)

O=c1[nH]cc(F)c(=O)[nH]1 + Cc1[nH]c2ccc(F)cc2c1-c1nc2c3cccnc3c3ncccc3c2[nH]1
active: viability, T/C [35] 7.19% | viability, T/C [36] 8.78%
inactive: viability, T/C [1] 113% | viability, T/C [2] 92.3% | viability, T/C [3] 106% | viability, T/C [4] 58.9% | viability, T/C [5] 42.2% | viability, T/C [6] 31.4% | viability, T/C [7] 86.8% | viability, T/C [8] 101% | viability, T/C [9] 115% | viability, T/C [10] 68.9% | viability, T/C [11] 40.5% | viability, T/C [12] 31.5% | viability, T/C [13] 91.1% | viability, T/C [14] 113% | viability, T/C [15] 137% | viability, T/C [16] 69.2% | viability, T/C [17] 40.3% | viability, T/C [18] 33.8% | viability, T/C [19] 92.2% | viability, T/C [20] 113% | viability, T/C [21] 113% | viability, T/C [22] 67.3% | viability, T/C [23] 39.1% | viability, T/C [24] 32.2% | viability, T/C [25] 106% | viability, T/C [26] 106% | viability, T/C [27] 87.6% | viability, T/C [28] 31.3% | viability, T/C [29] 27.5% | viability, T/C [30] 20.4% | viability, T/C [31] 31.7% | viability, T/C [32] 73.2% | viability, T/C [33] 48.5% | viability, T/C [34] 15.9%
684 nM: IC50 (second compound 3.16 µM)
1590 nM: IC50 (second compound 0.0316 µM)
1940 nM: IC50 (second compound 0.1 µM)
1880 nM: IC50 (second compound 1 µM)
234 nM: IC50 (second compound 10 µM)
1990 nM: IC50 (second compound 0.316 µM)
